Values quoted from earlier work as cited in US8541178B2, “Analysis of antibody drug conjugates by bead-based affinity capture and mass spectrometry” (Genentech, Inc., priority 2008, dated 2013).

Conditions: more cytotoxic than conventional cancer chemotherapeutic agents

COc1cc2cc(c1Cl)N(C)C(=O)C[C@H](OC(=O)[C@H](C)N(C)C(C)=O)[C@]1(C)O[C@H]1[C@H](C)[C@@H]1C[C@@](O)(NC(=O)O1)[C@H](OC)/C=C/C=C(\C)C2 [Maytansine]
Cytotoxicity relative to methotrexate, daunorubicin, and vincristine: 100- to 1000 fold
